Measured values published in patent US20100197757A1, “OXINDOLES AS KINASE INHIBITORS” (priority 2005, published 2010).

Test system: MEK
Assay: IC50 column of the compound table in Example 1 (assay not given)

Q: How did the IC50 turn out when `N/C(=C1\C(=O)Nc2cc(Cl)ccc21)c1ccccc1` [No. a, 3-(Amino-phenyl-methylene)-6-chloro-1,3-dihydro-indol-2-one] was run?
A: Its IC50 is 1100 nM.

Q: With `N/C(=C1\C(=O)Nc2ccc(Cl)cc21)c1ccccc1` [No. b, 3-(Amino-phenyl-methylene)-5-chloro-1,3-dihydro-indol-2-one] as the molecule, how does the IC50 read?
A: The IC50 was 260 nM.

Q: `N/C(=C1\C(=O)Nc2ccccc21)c1ccc(O)cc1` [No. c, 3-[Amino-(4-hydroxy-phenyl)-methylene]-1,3-dihydro-indol-2-one] was tested. Which IC50 did it give?
A: Its IC50 is 940 nM.

Q: With `N/C(=C1\C(=O)Nc2ccccc21)c1ccc(I)cc1` [No. d, 3-[Amino-(4-iodo-phenyl)-methylene]-1,3-dihydro-indol-2-one] as the molecule, how does the IC50 read?
A: Its IC50 is 2700 nM.

Q: With `N/C(=C1\C(=O)Nc2cc(Cl)ccc21)c1ccc(I)cc1` [No. e, 3-(Amino-(4-iodo-phenyl)-methylene)-6-chloro-1,3-dihydro-indol-2-one] as the molecule, how does the IC50 read?
A: The IC50 was 4100 nM.

Q: For `N/C(=C1\C(=O)Nc2ccc(Cl)cc21)c1ccc(I)cc1` [No. f, 3-(Amino-(4-iodo-phenyl)-methylene)-5-chloro-1,3-dihydro-indol-2-one], which IC50 is on record?
A: Its IC50 is 1100 nM.

Q: For `N/C(=C1\C(=O)Nc2ccc(Br)cc21)c1cccc(I)c1` [No. n, 3-(Amino-(3-iodo-phenyl)-methylene)-5-bromo-1,3-dihydro-indol-2-one], which IC50 is on record?
A: The IC50 was 3400 nM.

Q: For `COc1ccc(/C(N)=C2/C(=O)Nc3ccccc32)cc1` [No. o, 3-[Amino-(4-methoxy-phenyl)methylene]-1,3-dihydro-indol-2-one], which IC50 is on record?
A: The IC50 was 3100 nM.

Q: `COc1ccc(/C(N)=C2/C(=O)Nc3cc(Cl)ccc32)cc1` [No. p, 3-(Amino-(4-methoxy-phenyl)-methylene)-6-chloro-1,3-dihydro-indol-2-one] was tested. Which IC50 did it give?
A: Its IC50 is 8700 nM.
